According to PubChem BioAssay (NCI):
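Exposure lasted 48 hours, with cells grown in 96-well plates and compounds tested at five concentrations. GI50 = concentration required for 50% inhibition of growth. TGI: concentration producing complete growth inhibition.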

Columns and labels:
Test in all cases: DTP human tumour cell line panel, 48 h
786-0 renal = system: 786-0 renal
A549 NSCLC = system: A549 NSCLC
HOP-92 NSCLC = system: HOP-92 NSCLC
K-562 leukemia = system: K-562 leukemia
NCI-H226 lung = system: NCI-H226 lung
NCI-H460 lung = system: NCI-H460 lung
SK-MEL-2 melanoma = system: SK-MEL-2 melanoma
SK-MEL-28 melanoma = system: SK-MEL-28 melanoma
SN12C renal = system: SN12C renal
MCF7 breast = system: MCF7 breast

Row | Compound | TGI (786-0 renal) [µM] | TGI (A549 NSCLC) [µM] | TGI (HOP-92 NSCLC) [µM] | TGI (K-562 leukemia) [µM] | TGI (NCI-H226 lung) [µM] | TGI (NCI-H460 lung) [µM] | TGI (SK-MEL-2 melanoma) [µM] | TGI (SK-MEL-28 melanoma) [µM] | TGI (SN12C renal) [µM] | GI50 (786-0 renal) [µM] | GI50 (A549 NSCLC) [µM] | GI50 (HOP-92 NSCLC) [µM] | GI50 (K-562 leukemia) [µM] | GI50 (NCI-H226 lung) [µM] | GI50 (NCI-H460 lung) [µM] | GI50 (SK-MEL-2 melanoma) [µM] | GI50 (SK-MEL-28 melanoma) [µM] | GI50 (SN12C renal) [µM] | TGI (MCF7 breast) [µM]
1 | COc1cc2ccc(CC#N)cc2cc1OC | > 100 | > 100 | > 100 | > 100 | > 100 | > 100 | > 100 | > 100 | > 100 | – | – | – | – | – | – | – | – | – | –
2 | COc1ccc2oc(-c3ccncc3)cc(=O)c2c1 | > 100 | – | > 100 | > 100 | > 100 | > 100 | > 100 | > 100 | > 100 | – | – | – | – | – | – | – | – | – | –
3 | CCC[CH2][Sn]1([CH2]CCC)[O]C(=O)C[S]1 | 2.83 | 23.5 | 3.95 | 3.59 | 3.77 | 16.9 | 2.33 | 2.69 | 5.09 | 1.49 | 8.9 | 1.84 | 0.405 | 1.93 | 4.09 | 0.975 | 1.35 | 1.91 | –
4 | C#CCOCn1cnc2ncnc(Cl)c21 | > 100 | > 100 | > 100 | > 100 | > 100 | > 100 | > 100 | > 100 | > 100 | – | – | – | – | – | – | – | – | – | –
5 | CC(C)C(/C=C/c1ccccc1)=N\NC(=O)N/N=C(/C=C/c1ccccc1)C(C)C | 41.9 | > 100 | 91.3 | > 100 | 55.4 | 33.4 | 52 | > 100 | 33.2 | – | – | – | – | – | – | – | – | – | –
6 | BrP(NC1CCCCCC1)(c1ccccc1)(c1ccccc1)c1ccccc1 | 32.3 | 25.8 | – | > 100 | 33 | – | 8.53 | 6.62 | 16.1 | – | – | – | – | – | – | – | – | – | 6.26
7 | CN(C)c1nc(N(C)C)nc(N(C)CN(C)c2nc(N(C)C)nc(N(C)C)n2)n1 | 32.9 | > 100 | > 100 | > 100 | – | > 100 | > 100 | > 100 | > 100 | – | – | – | – | – | – | – | – | – | –
8 | COc1cc2c(c3oc(-c4ccc5c(c4)OCO5)c(O)c(=O)c13)CCC(C)(C)O2 | > 100 | > 100 | – | > 100 | > 100 | – | > 100 | > 100 | > 100 | – | – | – | – | – | – | – | – | – | –
